This is an account of results in US20230341377A1, “DISCONNECTION AGENTS” (DC Europa Limited, priority 2020, published 2023).

In assay [1] the test system is Hs578 cell line for human breast cancer, U373 cell line of human glioblastoma, and HepG2 hepatocellular carcinoma cells. In words: SMS assay (small molecule sharing), cell dye-sharing between cancer cells, cell lines pooled. The class given is cell-based. The settings on record: for effect on cell dye-sharing in the SMS assay: concentration range of 0.1 to 30 μM; for inhibition of cell dye-sharing in the SMS assay: various doses that are not cytotoxic, in one or more cell lines. The text has this:
(§1) The SMS assay was developed to assess the transfer of cell dye (for example the acetoxymethyl [AM]-based Calcein AM), between cancer cells. The SMS assay can be applied to any cell lines forming tumour networks such as tumour microtubes (TM) or tunneling nanotubes (TNT), which enable the transfer of molecules across cells. The SMS assay can be used to assess networking capabilities of any cancer cell lines including HepG2 hepatocellular carcinoma cells, Hs578T cell line for human breast cancer, and U373 cell line for human glioblastoma.
(§2) The SMS assay is illustrated in FIG. 1. For the SMS assay, two sets of cells are stained with the cell dye of choice and a customary cell tracker dye (for example cell tracker blue) using established staining techniques (steps 1 and 2). Each set of cells are then co-incubated with the compound of interest to assess its capabilities to modulate the cells small molecule sharing characteristics (step 3). Then the two sets of cells are combined on a plate, for example at a ratio of 1:1, and cultured in the presence of the compound of interest (Step 4).
(§3) Finally, live cells are evaluated for viability and analyzed by flow cytometry for the uptake of cell dye in the […] cells (Step 5). The comparison of cell tracker uptake against positive and negative control enables the assessment of the compound's ability to modulate the tumour networks including those formed by TM and TNTs
(§4) The SMS assay has been applied to assess the modulation of network sharing capabilities of Protein Kinase C Modulators (PKCm) at various concentrations in the Hs578 cell line for human breast cancer, U373 cell line of human glioblastoma, and HepG2 hepatocellular carcinoma cells. PBS vehicle was used as negative control and the PKCm PHORBOL 12-MYRISTATE 13-ACETATE (PMA) at a concentration of 5 nM was used as the positive control.
(§5) FIG. 2A and FIG. 2B show the percentage of cell tracker cells that were accepting the cell dye transfer from separately stained donor cells according to the SMS assay of Example. The percentage of acceptor cells detected is shown in comparison to vehicle (upper horizontal line) and PMA at 5-10 nM concentration (lower horizontal line). Active PKCm in the SMS assay (FIG. 2A) show a decrease in acceptor cells relative to vehicle at certain concentration. […] The upper limit of the tested concentrations was determined as the maximal non-cytotoxic dose.

The next assay has as its system Hs578T cells. The assay is described as follows: SMS assay in Hs578T cells. Format: cell-based, human. The settings on record: versus vehicle and PMA (5 nM), FIG. 2A, 2B, 2D, 2E.
Source text: as §1, §2, §3, §4, §5

The test system of another assay is PKCβI/PKCβII. The arrangement: key: +—activation; ++—strong activation. As to conditions: cited from earlier work; for activation of PKCβI/PKCβII: cPKCs, gene PRKCB.
The target in a further assay is PKCθ (Homo sapiens, UniProt Q04759). The arrangement: key: +—activation; ++—strong activation. As to conditions: nPKCs, gene PRKCQ; cited from earlier work.
The target in the next assay is PKCγ (Homo sapiens, UniProt P05129). The arrangement: key: +—activation; ++—strong activation. The settings on record: cPKCs, gene PRKCG; cited from earlier work.
A further assay deals with PKCδ (Homo sapiens, UniProt Q05655). Also on record: key: +—activation; ++—strong activation. As to conditions: nPKCs, gene PRKCD; cited from earlier work.
The next assay addresses T1, PKCε (Homo sapiens, UniProt Q02156).
T1 sequence (Q02156 1-737): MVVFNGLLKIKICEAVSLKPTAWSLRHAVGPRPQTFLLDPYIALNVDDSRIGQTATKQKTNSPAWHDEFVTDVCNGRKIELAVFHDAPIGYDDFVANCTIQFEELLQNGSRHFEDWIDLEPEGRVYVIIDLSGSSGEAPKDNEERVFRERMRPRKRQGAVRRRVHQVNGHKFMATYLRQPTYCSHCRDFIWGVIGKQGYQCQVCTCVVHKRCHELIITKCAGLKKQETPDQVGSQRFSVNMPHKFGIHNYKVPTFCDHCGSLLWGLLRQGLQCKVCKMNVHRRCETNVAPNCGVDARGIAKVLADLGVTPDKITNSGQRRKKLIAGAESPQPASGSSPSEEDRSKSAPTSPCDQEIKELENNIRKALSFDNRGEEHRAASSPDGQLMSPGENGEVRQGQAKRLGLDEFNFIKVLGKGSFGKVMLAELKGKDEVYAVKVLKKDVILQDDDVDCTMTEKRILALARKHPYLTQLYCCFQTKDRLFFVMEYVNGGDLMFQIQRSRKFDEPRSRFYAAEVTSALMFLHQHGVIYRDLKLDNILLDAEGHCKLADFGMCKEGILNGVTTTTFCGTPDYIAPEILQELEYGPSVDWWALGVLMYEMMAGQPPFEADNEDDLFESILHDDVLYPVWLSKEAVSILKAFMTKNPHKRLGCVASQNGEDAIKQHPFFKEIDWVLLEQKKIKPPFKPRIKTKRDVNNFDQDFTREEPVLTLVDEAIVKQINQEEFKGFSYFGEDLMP
The arrangement: key: +—activation; ++—strong activation. As to conditions: nPKCs, gene PRKCE; cited from earlier work.

A further assay deals with PKCη (Homo sapiens, UniProt P24723). The arrangement: key: +—activation; ++—strong activation. As to conditions: nPKCs, gene PRKCH; cited from earlier work.
For another assay, the target named is PKCα (Homo sapiens, UniProt P17252). The arrangement: key: +—activation; ++—strong activation. The settings on record: cPKCs, gene PRKCA; cited from earlier work.
The subject of another assay is U373 cells. The assay is described as follows: SMS assay in U373 cells. Format: cell-based, human. As to conditions: versus vehicle and PMA (10 nM), FIG. 2C.
Source text: as §1
(§6) The SMS assay is illustrated in FIG. 1. For the SMS assay, two sets of cells are stained with the cell dye of choice and a customary cell tracker dye (for example cell tracker blue) using established staining techniques (steps 1 and 2). […]
(§7) Finally, live cells are evaluated for viability and analyzed by flow cytometry for the uptake of cell dye in the flow tracker-stained cells (Step 5). […]
(§8) FIG. 2A and FIG. 2B show the percentage of cell tracker cells that were accepting the cell dye transfer from separately stained donor cells according to the SMS assay of Example. The percentage of acceptor cells detected is shown in comparison to vehicle (upper horizontal line) and PMA at 5-10 nM concentration (lower horizontal line). […] The upper limit of the tested concentrations was determined as the maximal non-cytotoxic dose.

The subject of another assay is HepG2 cells. In words: SMS assay in HepG2 cells. Format: cell-based, human. The settings on record: versus vehicle and PMA (10 nM), FIG. 2C.
Source text: as §1, §6, §7, §8

PKCδ, sequence (Q05655 whole entry): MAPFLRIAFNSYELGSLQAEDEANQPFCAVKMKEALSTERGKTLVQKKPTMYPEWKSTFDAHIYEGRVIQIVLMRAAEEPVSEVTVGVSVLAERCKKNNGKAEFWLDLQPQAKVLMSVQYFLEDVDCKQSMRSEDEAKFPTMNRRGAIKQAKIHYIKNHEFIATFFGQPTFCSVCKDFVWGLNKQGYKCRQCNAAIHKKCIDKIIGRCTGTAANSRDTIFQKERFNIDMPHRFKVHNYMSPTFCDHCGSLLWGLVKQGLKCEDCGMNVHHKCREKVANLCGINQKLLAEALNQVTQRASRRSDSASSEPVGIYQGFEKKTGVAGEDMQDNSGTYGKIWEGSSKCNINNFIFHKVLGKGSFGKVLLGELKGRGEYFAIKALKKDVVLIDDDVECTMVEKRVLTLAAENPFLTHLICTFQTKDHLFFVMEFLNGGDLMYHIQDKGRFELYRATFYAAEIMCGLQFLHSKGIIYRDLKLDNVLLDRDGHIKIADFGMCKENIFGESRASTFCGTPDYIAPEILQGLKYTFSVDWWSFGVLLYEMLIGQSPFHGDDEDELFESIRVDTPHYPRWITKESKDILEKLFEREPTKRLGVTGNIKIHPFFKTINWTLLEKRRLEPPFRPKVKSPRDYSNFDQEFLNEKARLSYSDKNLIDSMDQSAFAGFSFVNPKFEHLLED
PKCη, sequence (P24723 whole entry): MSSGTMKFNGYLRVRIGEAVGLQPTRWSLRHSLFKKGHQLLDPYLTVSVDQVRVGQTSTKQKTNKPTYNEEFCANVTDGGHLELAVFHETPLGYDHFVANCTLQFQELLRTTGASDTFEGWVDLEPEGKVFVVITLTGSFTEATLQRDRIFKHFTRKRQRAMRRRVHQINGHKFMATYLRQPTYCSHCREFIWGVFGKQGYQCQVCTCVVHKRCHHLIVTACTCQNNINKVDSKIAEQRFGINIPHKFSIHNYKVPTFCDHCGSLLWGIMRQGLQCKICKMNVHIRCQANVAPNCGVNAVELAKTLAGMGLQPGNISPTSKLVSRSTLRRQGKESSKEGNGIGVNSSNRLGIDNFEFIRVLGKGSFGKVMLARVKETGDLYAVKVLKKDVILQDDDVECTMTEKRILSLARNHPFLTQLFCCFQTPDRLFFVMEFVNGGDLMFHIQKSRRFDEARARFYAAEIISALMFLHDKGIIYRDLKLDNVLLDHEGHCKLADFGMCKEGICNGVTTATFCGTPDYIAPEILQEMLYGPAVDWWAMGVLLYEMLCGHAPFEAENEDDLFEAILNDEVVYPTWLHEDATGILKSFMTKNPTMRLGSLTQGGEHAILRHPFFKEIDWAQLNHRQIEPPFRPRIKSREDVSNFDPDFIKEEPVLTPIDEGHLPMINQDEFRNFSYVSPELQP
PKCθ, sequence (Q04759 whole entry): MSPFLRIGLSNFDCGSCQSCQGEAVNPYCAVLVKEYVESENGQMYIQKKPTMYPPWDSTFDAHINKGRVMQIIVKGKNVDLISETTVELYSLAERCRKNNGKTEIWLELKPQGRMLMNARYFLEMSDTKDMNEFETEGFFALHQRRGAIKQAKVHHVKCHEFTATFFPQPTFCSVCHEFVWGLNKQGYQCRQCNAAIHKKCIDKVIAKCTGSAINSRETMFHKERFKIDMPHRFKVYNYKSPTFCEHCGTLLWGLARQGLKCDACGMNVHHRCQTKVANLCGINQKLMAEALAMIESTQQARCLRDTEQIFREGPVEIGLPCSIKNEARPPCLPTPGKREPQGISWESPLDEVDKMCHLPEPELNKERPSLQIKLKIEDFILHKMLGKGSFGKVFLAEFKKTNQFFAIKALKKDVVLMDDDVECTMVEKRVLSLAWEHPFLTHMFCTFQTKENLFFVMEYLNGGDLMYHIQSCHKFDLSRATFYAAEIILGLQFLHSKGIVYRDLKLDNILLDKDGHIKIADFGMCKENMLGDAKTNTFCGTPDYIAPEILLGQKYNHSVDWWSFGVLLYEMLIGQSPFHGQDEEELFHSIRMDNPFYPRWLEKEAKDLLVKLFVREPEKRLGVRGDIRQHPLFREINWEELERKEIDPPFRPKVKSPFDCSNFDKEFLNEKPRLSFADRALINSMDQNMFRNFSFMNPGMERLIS

For the molecule `CCCCCCCCCCNc1cc(CO)c2cc[nH]c2c1` [6-(N-Decylamino)-4-Hydroxymethylindole], in [1], the “effect on cell dye-sharing in the SMS assay” value (“effect on cell dye-sharing” for short) is reported as “did not have any effect”. The “cell dye-sharing in the SMS assay (percentage of acceptor cells)” value with Hs578T cells was “not interfering with cell dye-sharing”.
For `CCCCCC1CC1CC1CC1CCCCCCCC(=O)O` (centres unmarked) [FR236924] the same measures were “did not have any effect” and “not interfering with cell dye-sharing”.
With `CCCCCCCCCCCCCC(=O)O[C@@H]1[C@@H](C)[C@@]2(O)[C@@H](C=C(CO)C[C@]3(O)C(=O)C(C)=C[C@@H]23)[C@@H]2C(C)(C)[C@]12OC(C)=O` [PMA, 12-O-tetradecanoyl-phorbol-13-acetate], the “activation of PKCβI/PKCβII” value in the assay on PKCβI/PKCβII was “+”. In addition, the “activation of PKCθ” value on PKCθ was “+”. Further, the “activation of PKCγ” value on PKCγ is “+”. The “inhibition of cell dye-sharing in the SMS assay” value (“inhibition” for short) in [1] is reported as “marked inhibition of cell dye-sharing”. The “activation of PKCδ” value on PKCδ was “+”. Further, in the assay on Hs578T cells, the “cell dye-sharing in the SMS assay (percentage of acceptor cells)” value is given as “inhibition of cell dye-sharing”. For the same molecule, the “activation of PKCε” value at PKCε was “+”. The “activation of PKCη” value on PKCη is “+”. On PKCα, the “activation of PKCα” value is on record as “+”.
In the case of `CCC/C=C/C=C/C(=O)O[C@H]1/C(=C/C(=O)OC)C[C@H]2C[C@H]([C@@H](C)O)OC(=O)C[C@H](O)C[C@@H]3C[C@H](OC(C)=O)C(C)(C)[C@](O)(C[C@@H]4C/C(=C/C(=O)OC)C[C@H](/C=C/C(C)(C)[C@]1(O)O2)O4)O3` [bryostatin], the “cell dye-sharing in the SMS assay (percentage of acceptor cells)” value in the assay with Hs578T cells is given as “inhibition of cell dye-sharing”.
On to `C/C=C(/C)C(=O)O[C@H]1C(C)=C[C@]23C(=O)[C@@H](C=C(CO)[C@@H](O)[C@]12O)[C@H]1[C@@H](C[C@H]3C)C1(C)C` [Ingenol-3-angelate], for which the “activation of PKCβI/PKCβII” value in the assay with PKCβI/PKCβII is listed as “+”. Besides, the “activation of PKCγ” value at PKCγ is “+”. Moreover, the “effect on cell dye-sharing” value in [1] was “did not have any effect”. In addition, in assay [1] (several different tumour cell types), the “disconnection of tumour cell types in the assay for disconnection” value is “does not disconnect”. The “activation of PKCδ” value on PKCδ is recorded as “+”. In addition, the “activation of PKCε” value at PKCε is reported as “+”. In addition, at PKCα, the “activation of PKCα” value is “+”.
Consider Bryostatin 2, for which, in assay [1], the “inhibition” value is listed as “marked inhibition of cell dye-sharing”. Also, the “cell dye-sharing in the SMS assay (percentage of acceptor cells)” value with U373 cells is on record as “inhibition of cell dye-sharing”.
Turning to `O=S(=O)(NCCCCCCc1ccccc1)c1cccc2c(Cl)cccc12` [SC-9], the “effect on cell dye-sharing” value in [1] is “did not have any effect”. Also, the “cell dye-sharing in the SMS assay (percentage of acceptor cells)” value in the assay on Hs578T cells was “not interfering with cell dye-sharing”.
For the molecule `CCC/C=C/C=C/C(=O)O[C@H]1/C(=C/C(=O)OC)C[C@H]2C[C@H]([C@@H](C)O)OC(=O)C[C@H](O)C[C@@H]3C[C@H](OC(C)=O)C(C)(C)[C@](O)(C[C@@H]4C/C(=C/C(=O)OC)C[C@H](/C=C/C(C)(C)[C@]1(O)O2)O4)O3` [Bryostatin 1], the “activation of PKCβI” value in the assay with PKCβI/PKCβII (βI only, activation and translocation in transfected CHO cells (Wender 2011)) was “+ (βI)”. Also, the “inhibition” value in assay [1] was “marked inhibition of cell dye-sharing”. In the assay with HepG2 cells, the “cell dye-sharing in the SMS assay (percentage of acceptor cells)” value is listed as “inhibition of cell dye-sharing”. Moreover, the “activation of PKCε” value on PKCε was “+”. Moreover, on PKCα, the “activation of PKCα” value is recorded as “+”.
`CC(C)[C@H]1C(=O)N[C@H](CO)Cc2c[nH]c3cccc(c23)N1C` [Indolactam V]: the “activation of PKCβI/PKCβII” value in the assay on PKCβI/PKCβII was “++”. Moreover, the “activation of PKCγ” value at PKCγ is recorded as “+”. Besides, the “inhibition” value in assay [1] is on record as “marked inhibition of cell dye-sharing”. Moreover, the “activation of PKCδ” value at PKCδ was “++”. Further, the “cell dye-sharing in the SMS assay (percentage of acceptor cells)” value in the assay with Hs578T cells is on record as “inhibition of cell dye-sharing”. Further, the “activation of PKCε” value at PKCε was “+”. In addition, the “activation of PKCη” value at PKCη was “+”. Also, the “activation of PKCα” value at PKCα is listed as “+”.
